In patent US20220031680A1, “Donecopride As Neuroprotective Agent In the Treatment of Neurodegenerative Diseases” (priority 2018, published 2022):
Several values for one entry are separate records, joined by “and”; a condition that tells them apart may be missing. Identical values can stand only once.

Tested on: rat primary cortical neurons after glutamate injury
Assay: Survival and neurite network of primary cortical neurons after glutamate injury
Assay type: cell-based
Details: glutamate 20 μM 20 min; for concentrations significantly protecting cortical neurons from death: compound 1 h before and 48 h after; for concentration of maximal effect on neurite network: cortical neurons
Experimental: The present study assesses the neuroprotective effect of MR36014 and MR33583 (at 4 concentrations) in rat primary cortical neurons after glutamate injury. The test compounds were pre-incubated for 1 hour before glutamate application (20 μM for 20 min). The neuroprotective effect (survival and neurite network) of test compounds were investigated.
Rat cortical neurons were cultured as described by Callizot et al. (2013) J. Neurosci. Res. 91:706-716. Pregnant female rat (Wistar) of 15 days of gestation were killed using a deep anesthesia with CO2 chamber and a cervical dislocation. Briefly, fetuses were collected and immediately placed in ice-cold L15 Leibovitz medium with a 2% penicillin (10,000 U/mL) and streptomycin (10 mg/mL) solution (PS) and 1% bovine serum albumin (BSA). Cortex were treated for 20 min at 37° C. with a trypsin-EDTA solution at a final concentration of 0.05% trypsin and 0.02% EDTA. The dissociation was stopped by addition of Dulbecco's modified Eagle's medium (DMEM) with 4.5 g/l of glucose, containing DNAse I grade II (final concentration 0.5 mg/ml) and 10% fetal calf serum (FCS). Cells were mechanically dissociated by three forced passages through the tip of a 10-ml pipette. Cells were then centrifuged at 515×g for 10 min at 4° C. The supernatant was discarded, and the pellet was resuspended in a defined culture medium consisting of Neurobasal medium with a 2% solution of B27 supplement, 2 mmol/I L-glutamine, 2% PS solution, and 10 ng/ml brain-derived neurotrophic factor (BDNF). Viable cells were counted in a Neubauer cytometer, using the trypan blue exclusion test.
The cells were seeded at a density of 25,000 per well in 96-well plates precoated with poly-L-lysine and were cultured at 37° C. in an air (95%)-CO2 (5%) incubator.
Pre-incubation: On day 13 of culture, the compounds were dissolved in the culture medium and pre-incubated with primary cortical neurons for 1 hour, before glutamate exposure.
Injury: 1 hour after test compound incubation, glutamate was added to a final concentration of 20 μM diluted in control medium still in presence of the test compounds for 20 min. After 20 min, glutamate was washed out and fresh culture medium with the test compounds were added for additional 48 hours.
Test compounds were tested in 96-well plate (n=6 culture wells per condition). The following conditions were assessed: […]
The following read-outs will be investigated: • The total neuron survival (MAP-2 positive, number), (data will be expressed into mean number of neurons of 30 pictures per well). • The total neurite network (MAP-2 in μm), (data will be expressed into mean of neurons of 30 pictures per well).

Structure (SMILES) | concentrations significantly protecting cortical neurons from death | concentration of maximal effect on neurite network [nM]
COc1cc(N)c(F)cc1C(=O)CCC1CCN(CC2CCCC2)CC1 [MR33583] | 50 nM and 100 nM | 50
COc1cc(N)c(F)cc1C(=O)CCC1CCN(CC2CCCCCC2)CC1 [MR36014] | 1 nM | 1
